Source: patent US7045532B2 (Millennium Pharmaceuticals, Inc., priority 1999, dated 2006)
Like-named read-outs stand apart in the source and are kept apart here.

Assays:
[1] = molecular target: T1, Carboxypeptidase A (Bos taurus, UniProt P00730); assay: Carboxypeptidase A activity assay; format: biochemical; settings: Ki class, compounds tested in 5% DMSO
T1 sequence (P00730 111-419): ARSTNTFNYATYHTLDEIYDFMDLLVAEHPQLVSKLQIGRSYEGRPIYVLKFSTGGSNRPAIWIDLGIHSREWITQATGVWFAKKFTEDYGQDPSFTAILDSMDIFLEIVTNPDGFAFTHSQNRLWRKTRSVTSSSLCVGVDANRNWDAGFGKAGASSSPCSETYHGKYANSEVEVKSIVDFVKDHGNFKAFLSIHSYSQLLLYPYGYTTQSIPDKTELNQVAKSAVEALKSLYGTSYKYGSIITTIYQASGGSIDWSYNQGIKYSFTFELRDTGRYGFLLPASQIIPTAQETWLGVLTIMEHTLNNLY
In short: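 Bovine carboxypeptidase A activity followed at 328 nm in 5% DMSO, reaction stopped with EDTA. Activity measured at 12 compound concentrations. Ki derived from apparent Ki as Ki=Kiapp/(1+[S]/Km).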

[2] = molecular target: T2, ACE (Sigma, A2580) (Sus scrofa, UniProt F1RRW5); assay: ACE enzymatic activity assay; format: biochemical, porcine; settings: Ki class, compounds tested in 5% DMSO
T2 construct: ACE from porcine kidney; purchased Sigma A2580; host or cells: porcine kidney
T2 sequence (F1RRW5 34-1309): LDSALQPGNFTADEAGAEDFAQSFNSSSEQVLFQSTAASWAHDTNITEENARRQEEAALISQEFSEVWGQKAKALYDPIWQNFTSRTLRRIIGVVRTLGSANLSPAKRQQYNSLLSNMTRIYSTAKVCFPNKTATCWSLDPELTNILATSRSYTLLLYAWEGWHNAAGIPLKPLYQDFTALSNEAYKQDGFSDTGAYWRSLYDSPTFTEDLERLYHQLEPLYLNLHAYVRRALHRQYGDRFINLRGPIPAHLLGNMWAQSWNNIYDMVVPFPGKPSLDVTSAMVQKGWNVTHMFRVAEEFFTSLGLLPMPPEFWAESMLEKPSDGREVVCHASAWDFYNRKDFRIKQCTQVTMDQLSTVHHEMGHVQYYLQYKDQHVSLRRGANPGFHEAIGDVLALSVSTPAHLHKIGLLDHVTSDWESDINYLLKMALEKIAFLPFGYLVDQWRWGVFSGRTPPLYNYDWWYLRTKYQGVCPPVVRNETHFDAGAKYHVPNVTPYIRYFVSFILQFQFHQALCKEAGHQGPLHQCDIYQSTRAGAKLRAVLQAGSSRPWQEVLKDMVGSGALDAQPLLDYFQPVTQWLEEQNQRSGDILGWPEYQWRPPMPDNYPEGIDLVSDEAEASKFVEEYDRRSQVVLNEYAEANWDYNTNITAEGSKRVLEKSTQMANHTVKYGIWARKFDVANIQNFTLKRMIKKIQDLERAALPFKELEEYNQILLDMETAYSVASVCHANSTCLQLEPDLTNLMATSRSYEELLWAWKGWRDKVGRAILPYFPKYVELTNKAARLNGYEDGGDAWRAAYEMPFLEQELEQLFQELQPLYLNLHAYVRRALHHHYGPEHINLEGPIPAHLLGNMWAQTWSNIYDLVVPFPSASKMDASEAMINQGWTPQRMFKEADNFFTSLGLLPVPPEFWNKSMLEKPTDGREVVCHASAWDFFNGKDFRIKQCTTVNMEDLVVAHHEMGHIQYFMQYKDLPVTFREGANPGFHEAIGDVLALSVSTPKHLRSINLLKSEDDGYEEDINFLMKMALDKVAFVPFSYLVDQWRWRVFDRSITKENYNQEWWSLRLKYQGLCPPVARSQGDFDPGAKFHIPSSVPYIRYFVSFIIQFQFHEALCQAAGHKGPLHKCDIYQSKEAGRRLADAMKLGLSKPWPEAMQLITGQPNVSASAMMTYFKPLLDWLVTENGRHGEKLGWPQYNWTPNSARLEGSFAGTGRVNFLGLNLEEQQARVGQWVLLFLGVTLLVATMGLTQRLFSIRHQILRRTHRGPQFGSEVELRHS
In short: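 ACE (1 nM final) in 50 mM HEPES, 300 mM NaCl, 0.01% Brij-35, pH 7.5, with compound in 5% DMSO at 12 concentrations, 25 °C. Substrate cleavage run ~30 min, stopped with EDTA; fluorescence read at excitation 320 nm, emission 405 nm.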

[3] = molecular target: T3, ACE-2 (Homo sapiens, UniProt Q9BYF1); assay: ACE-2 Competitive Substrate Assay (ACS Assay); format: biochemical
T3 construct: a stop codon inserted after the serine immediately preceding the transmembrane domain; made in house; host or cells: CHO K1 cells (transient transfection, purified from conditioned medium)

[4] = molecular target: ACE-2 (Rattus norvegicus, UniProt Q5EGZ1); assay: ACE-2 Competitive Substrate Assay, rat ACE-2; format: biochemical; settings: Ki class, compounds tested in 5% DMSO
[5] = Ki class, compounds tested in 5% DMSO, 12 concentrations, read-out: Human ACE-2 Activity
[6] = Ki class, compounds tested in 5% DMSO, 12 compound concentrations, Ki=Kiapp/(1+[S]/Km), read-out: Human ACE-2 Activity
[7] = Table 3, very good ACE-2 inhibiting compounds, species not given, read-out: ACE-2 Activity, Ki

T3 sequence (Q9BYF1 18-740 limits assumed): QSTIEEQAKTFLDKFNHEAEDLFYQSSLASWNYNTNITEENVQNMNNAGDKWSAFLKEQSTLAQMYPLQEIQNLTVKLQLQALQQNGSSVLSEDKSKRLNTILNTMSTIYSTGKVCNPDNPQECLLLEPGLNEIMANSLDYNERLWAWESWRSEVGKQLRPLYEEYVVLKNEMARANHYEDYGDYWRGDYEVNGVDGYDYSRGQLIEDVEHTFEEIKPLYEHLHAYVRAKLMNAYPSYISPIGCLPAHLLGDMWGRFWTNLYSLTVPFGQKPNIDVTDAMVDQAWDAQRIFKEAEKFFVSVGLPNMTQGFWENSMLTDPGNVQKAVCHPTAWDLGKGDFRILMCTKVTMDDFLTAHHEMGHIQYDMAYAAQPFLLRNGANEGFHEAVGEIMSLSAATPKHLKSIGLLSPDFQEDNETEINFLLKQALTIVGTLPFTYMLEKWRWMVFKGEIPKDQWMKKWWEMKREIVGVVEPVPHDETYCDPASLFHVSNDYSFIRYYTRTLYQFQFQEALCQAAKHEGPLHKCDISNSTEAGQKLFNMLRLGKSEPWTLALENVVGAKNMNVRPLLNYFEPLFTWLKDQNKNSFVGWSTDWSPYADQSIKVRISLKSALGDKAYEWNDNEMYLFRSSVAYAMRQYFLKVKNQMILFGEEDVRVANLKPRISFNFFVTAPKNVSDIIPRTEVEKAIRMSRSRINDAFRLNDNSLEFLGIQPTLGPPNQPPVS
Sequence of ACE-2 (Rattus norvegicus, UniProt Q5EGZ1) (Q5EGZ1 18-805): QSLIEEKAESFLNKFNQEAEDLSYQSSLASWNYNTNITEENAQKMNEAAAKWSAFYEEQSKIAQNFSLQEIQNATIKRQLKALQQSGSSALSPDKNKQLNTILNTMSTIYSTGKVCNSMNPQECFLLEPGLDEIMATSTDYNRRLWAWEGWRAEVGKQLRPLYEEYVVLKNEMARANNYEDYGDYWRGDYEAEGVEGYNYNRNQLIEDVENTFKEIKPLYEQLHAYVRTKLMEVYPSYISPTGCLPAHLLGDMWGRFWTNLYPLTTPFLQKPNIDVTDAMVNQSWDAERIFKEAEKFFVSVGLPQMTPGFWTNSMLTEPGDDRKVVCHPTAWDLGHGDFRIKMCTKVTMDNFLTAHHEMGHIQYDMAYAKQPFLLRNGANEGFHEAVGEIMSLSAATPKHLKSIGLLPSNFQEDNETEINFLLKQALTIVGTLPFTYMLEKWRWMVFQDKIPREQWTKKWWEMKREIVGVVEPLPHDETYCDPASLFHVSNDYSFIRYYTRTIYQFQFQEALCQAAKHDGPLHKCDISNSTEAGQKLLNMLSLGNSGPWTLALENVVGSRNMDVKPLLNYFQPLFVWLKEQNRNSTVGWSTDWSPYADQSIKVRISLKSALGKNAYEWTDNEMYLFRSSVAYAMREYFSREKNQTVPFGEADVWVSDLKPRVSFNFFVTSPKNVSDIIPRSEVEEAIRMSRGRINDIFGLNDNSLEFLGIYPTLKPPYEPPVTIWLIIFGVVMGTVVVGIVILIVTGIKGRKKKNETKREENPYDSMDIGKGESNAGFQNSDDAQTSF

| SMILES | Ki ([1]; 12 concentrations) | Ki ([2]; 12 concentrations) | Ki [3, 5] | Ki ([4]; 12 concentrations) | Ki ([1]; 12 compound concentrations) | Ki ([2]; 12 compound concentrations) | Ki [3, 6] | Ki [3, 7] | Ki ([4]; 12 compound concentrations) |
| --- | --- | --- | --- | --- | --- | --- | --- | --- | --- |
| CC(C)CC(N[C@@H](Cc1c[nH]cn1)C(=O)Nc1ccc([N+](=O)[O-])cc1)C(=O)O (single isomer, unassigned) [EX, 2-[2-(1H-Imidazol-4-yl)-1-(4-nitro-phenylcarbamoyl)ethylamino]-4-methyl-pentanoic acid] | > 50 µM | > 50 µM | > 0.5 µM | > 0.5 µM | – | – | – | – | – |
| O=C(O)C[C@H](NC(CCc1ccccc1)C(=O)O)C(=O)O (some centres unmarked) [AZ, 2-(1-Carboxy-3-phenyl-propylamino)-succinicacid] | > 50 µM | > 50 µM | > 0.5 µM | > 0.5 µM | – | – | – | – | – |
| CC(C)CC(N[C@@H](Cc1c[nH]cn1)C(=O)O)C(=O)O (single isomer, unassigned) [BK, 2-[1-Carboxy-2-(1H-imidazol-4-yl)-ethylamino]4-methyl-pentanoic acid] | > 50 µM | > 50 µM | > 0.5 µM | 0.1 to 0.5 µM | – | – | – | – | – |
| CC(C)C[C@H](N[C@@H](C(=O)O)c1ccccc1)C(=O)O [R, 2-[(Carboxy-phenyl-methyl)-amino]-4-methyl-pentanoic acid] | > 50 µM | > 50 µM | > 0.5 µM | > 0.5 µM | – | – | – | – | – |
| CC(C)CC(N[C@H](CO)Cc1c[nH]cn1)C(=O)O (single isomer, unassigned) [FO, 2-[1-Hydroxymethyl-2-(1H-imidazol-4-yl)-ethylamino)4-methyl-pentanoic acid] | > 50 µM | > 50 µM | > 0.5 µM | > 0.5 µM | – | – | – | – | – |
| CC(C)CC(N[C@@H](Cc1cn(-c2ccc([N+](=O)[O-])cc2[N+](=O)[O-])cn1)C(=O)O)C(=O)O (stereo in doubt) [EG, 2-[1-Carboxy-2-[1-(2,4-dinitro-phenyl)-1H-imidazol-4-yl]-ethylamino)4-methyl-pentanoic acid] | > 50 µM | 10 to 50 µM | > 0.5 µM | > 0.5 µM | – | – | – | – | – |
| CC(C)CC(CS)C(=O)O (centres unmarked) [DQ, 2-Mercaptomethyl-4-methyl-pentanoic acid] | > 50 µM | > 50 µM | > 0.5 µM | 0.1 to 0.5 µM | – | – | – | – | – |
| COc1ccc(C(N[C@@H](CC(C)C)C(=O)O)C(=O)O)cc1 (some centres unmarked) [BQ, 2-[(Carboxy-(4-methoxy-phenyl)-methyl]-amino]-4-methyl-pentanoic acid] | > 50 µM | > 50 µM | > 0.5 µM | > 0.5 µM | – | – | – | – | – |
| CC(C)CC(N[C@@H](Cc1cnc[nH]1)C(=O)NCCc1ccccc1)C(=O)O (single isomer, unassigned) [FW, 2-[2-(3H-Imidazol-4-yl)-1-phenethylcarbamoyl-ethylamino]-4-methyl-pentanoic acid] | > 50 µM | > 50 µM | > 0.5 µM | > 0.5 µM | – | – | – | – | – |
| O=C(O)[C@H](CC#Cc1ccccn1)N[C@@H](CCc1ccccc1)C(=O)O [EA, 2-(1-Carboxy-3-phenyl-propylamino)-5-pyridin-2-yl-pent-4-ynoic acid] | < 10 µM | > 50 µM | > 0.5 µM | 0.1 to 0.5 µM | – | – | – | – | – |
| CCCC(N[C@H](Cc1c[nH]cn1)C(=O)O)C(=O)O (some centres unmarked) [BC, 2-[1-Carboxy-2-(1H-imidazol-4-yl)-ethylamino]pentanoic-acid] | > 50 µM | 10 to 50 µM | > 0.5 µM | > 0.5 µM | – | – | – | – | – |
| CC(C)C[C@H](NC(C(=O)O)c1ccc2ccccc2c1)C(=O)O (some centres unmarked) [BR, 2-[(Carboxy-naphthalen-2-yl-methyl)-amino]-4-methyl-pentanoic acid] | > 50 µM | > 50 µM | > 0.5 µM | > 0.5 µM | – | – | – | – | – |

Now from value to compound:

| Ki ([1]; 12 concentrations) | Ki ([2]; 12 concentrations) | Ki [3, 5] | Ki ([4]; 12 concentrations) | Ki ([1]; 12 compound concentrations) | Ki ([2]; 12 compound concentrations) | Ki [3, 6] | Ki [3, 7] | Ki ([4]; 12 compound concentrations) | SMILES |
| --- | --- | --- | --- | --- | --- | --- | --- | --- | --- |
| – | – | – | – | < 10 µM | < 10 µM | < 0.1 µM | 0.05 to 0.1 µM | 0.1 to 0.5 µM | CC(C)CC(N[C@@H](Cc1cncn1Cc1ccc(C(C)C)cc1)C(=O)O)C(=O)O (single isomer, unassigned) [HU, 2-[1-Carboxy-2-[3-(4-isopropyl-benzyl)-3H-imidazol-4-yl]-ethylamino)4-methyl-pentanoic acid] |
| – | – | – | – | 10 to 50 µM | 10 to 50 µM | < 0.1 µM | < 0.05 µM | < 0.1 µM | CC(C)CC(N[C@@H](Cc1cncn1Cc1cccc(Cl)c1)C(=O)O)C(=O)O (single isomer, unassigned) [HC, 2-[1-Carboxy-2-[3-(3-chloro-benzyl)-3H-imidazol-4-yl]-ethylamino)4-methyl-pentanoic acid] |
| – | – | – | – | 10 to 50 µM | 10 to 50 µM | < 0.1 µM | < 0.05 µM | < 0.1 µM | Cc1ccc(Cn2cncc2C[C@H](NC(CC(C)C)C(=O)O)C(=O)O)cc1C (single isomer, unassigned) [HK, 2-[1-Carboxy-2-[3-(3,4-dimethyl-benzyl)-3H-imidazol-4-yl]-ethylamino)4-methyl-pentanoic acid] |
| > 50 µM | > 50 µM | > 0.5 µM | 0.1 to 0.5 µM | – | – | – | – | – | CC(C)CC(NC(Cc1ccccn1)C(=O)O)C(=O)O (centres unmarked) [BF, 2-(1-Carboxy-2-pyridin-2-yl-ethylamino)-4-methyl-pentanoic acid] |
| – | – | – | – | 10 to 50 µM | 10 to 50 µM | < 0.1 µM | < 0.05 µM | < 0.1 µM | Cc1cccc(Cn2cncc2C[C@H](NC(CC(C)C)C(=O)O)C(=O)O)c1 (single isomer, unassigned) [HO, 2-[1-Carboxy-2-[3-(3-methyl-benzyl)-3H-imidazol-4-yl]-ethylamino]4-methyl-pentanoic acid] |
| < 10 µM | 10 to 50 µM | > 0.5 µM | > 0.5 µM | – | – | – | – | – | CC(C)CC(N[C@@H](Cc1cn(Cc2ccc(Cl)cc2)cn1)C(=O)O)C(=O)O (some centres unmarked) [EC, 2-{1-Carboxy-2-[1-(4-chloro-benzyl}-1H-imidazol-4-yl]-ethylamino)4-methyl-pentanoic acid] |
| > 50 µM | > 50 µM | > 0.5 µM | > 0.5 µM | – | – | – | – | – | COc1ccc(Cn2cnc(C[C@H](NC(CC(C)C)C(=O)O)C(=O)O)c2)cc1 (some centres unmarked) [EM, 2-[1-Carboxy-2-[1-(4-methoxy-benzyl)-1H-imidazol-4-yl]-ethylamino)4-methyl-pentanoic acid] |
| – | – | – | – | 10 to 50 µM | 10 to 50 µM | < 0.1 µM | < 0.05 µM | < 0.1 µM | Cc1cc(C)cc(Cn2cncc2C[C@H](NC(CC(C)C)C(=O)O)C(=O)O)c1 (single isomer, unassigned) [HQ, 2-[1-Carboxy-2-[3-(3,5-dimethyl-benzyl)-3H-imidazol-4-yl]-ethylamino]4-methyl-pantanoic acid] |
| > 50 µM | > 50 µM | > 0.5 µM | > 0.5 µM | – | – | – | – | – | CC(C)CC(N[C@@H](Cc1cncn1COCc1ccccc1)C(=O)O)C(=O)O (single isomer, unassigned) [EO, 2-[2-(3-Benzyloxymethyl-3H-imidazol-4-yl)-1-carboxy-ethylamino]-4-methyl-pentanoic acid] |
